Data as given in patent US20180015051A1, “MODULATORS OF ALPHA-DICARBONYL DETOXIFICATION AND THEIR USE FOR THE TREATMENT OF DIABETIC PATHOLOGIES” (Buck Institute for Research on Aging, priority 2016, published 2018).

How the values were obtained:
TRPA1 (worm) = target: T1, TRPA1 (worm) (Caenorhabditis elegans, UniProt Q18297); assay: Calcium imaging of HEK293T cells (Rhod-3 AM), worm TRPA1; type: cell-based, C. elegans; settings: HEK293 cells transfected with worm TRPA1 and GFP; 100 pM AITC
T1 construct: expressed in transfected cells; host or cells: HEK293T
T1 sequence (Q18297 1-1211): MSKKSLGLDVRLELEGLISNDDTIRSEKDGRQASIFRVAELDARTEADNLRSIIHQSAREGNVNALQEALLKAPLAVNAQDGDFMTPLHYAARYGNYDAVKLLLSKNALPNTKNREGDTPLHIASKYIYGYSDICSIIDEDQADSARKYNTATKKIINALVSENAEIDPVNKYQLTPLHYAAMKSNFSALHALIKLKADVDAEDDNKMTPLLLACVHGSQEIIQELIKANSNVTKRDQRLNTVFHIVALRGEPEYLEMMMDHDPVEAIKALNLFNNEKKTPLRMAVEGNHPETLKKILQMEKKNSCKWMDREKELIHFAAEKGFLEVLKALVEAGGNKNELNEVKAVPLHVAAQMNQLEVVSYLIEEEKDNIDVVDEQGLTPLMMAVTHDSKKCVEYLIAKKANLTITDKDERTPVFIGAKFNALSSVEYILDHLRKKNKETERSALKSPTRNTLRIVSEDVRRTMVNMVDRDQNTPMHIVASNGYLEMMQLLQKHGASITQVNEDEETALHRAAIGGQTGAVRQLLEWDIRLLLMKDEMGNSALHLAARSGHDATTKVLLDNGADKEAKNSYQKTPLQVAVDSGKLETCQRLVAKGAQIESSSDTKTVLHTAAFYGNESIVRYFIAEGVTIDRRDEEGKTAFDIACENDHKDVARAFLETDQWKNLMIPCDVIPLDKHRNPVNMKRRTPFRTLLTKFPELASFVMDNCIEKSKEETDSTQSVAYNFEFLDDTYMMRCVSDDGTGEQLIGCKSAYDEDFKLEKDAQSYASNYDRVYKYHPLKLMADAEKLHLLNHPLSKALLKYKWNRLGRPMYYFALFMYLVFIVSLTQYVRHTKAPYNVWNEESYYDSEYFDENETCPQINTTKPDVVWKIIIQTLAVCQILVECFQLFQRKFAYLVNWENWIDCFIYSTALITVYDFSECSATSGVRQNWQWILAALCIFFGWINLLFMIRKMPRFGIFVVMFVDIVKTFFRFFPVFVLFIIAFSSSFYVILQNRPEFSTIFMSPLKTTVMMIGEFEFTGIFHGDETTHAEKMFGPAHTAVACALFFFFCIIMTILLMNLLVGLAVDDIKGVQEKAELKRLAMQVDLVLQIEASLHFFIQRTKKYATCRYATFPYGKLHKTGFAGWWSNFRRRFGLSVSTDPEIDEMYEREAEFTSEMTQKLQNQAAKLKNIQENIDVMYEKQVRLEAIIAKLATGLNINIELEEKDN
Protocol: (§1) Appropriate HEK293T-derived cells were seeded on collagen-coated glass bottom culture dishes (MatTek Corporation). Cells were loaded with 10 pM of Rhod-3 AM (Life Technology) for 30 min at 37° C. After 30 min they were washed twice with standard Tyrode's solution (135 mM NaCl, 4 mM KCl, 10 mM glucose, 10 mM HEPES, 2 mM CaCl2, and 1 mM MgCl2 at pH=7.4) at room temperature. Calcium imaging was performed on an Olympus BX51WI Axiovert microscope under a 60× objective. Fluorescent images were documented upon sequential excitation with 555 nm followed by 484 nm with a Roper CoolSnap CCD camera. After establishing a baseline 555/484 ratio, methylglyoxal or other agonists were diluted with Tyrode's solution (100 pM or 1 mM final concentration) and were perfused into cells. Images were processed with the MetaFlour (Olympus) software.

TRPA1 (RAT) = target: T2, TRPA1 (RAT) (Rattus norvegicus, UniProt Q6RI86); settings: stated as known; cited from earlier work
T2 construct: expressed in transfected cells; host or cells: HEK293T

C. elegans [1] = assay: Touch assay (touch index, gentle touch); settings: glod-4, young adult stage; 66.7 pM in DMSO
Protocol: For feeding RNAi bacteria, synchronized L1 larvae were transferred to NGM plates containing 1 mM of isopropyl P-D-1- thiogalactopyranoside/IPTG (referred to as RNAi plates) seeded with 20× concentrated HT1115 bacteria (cultured overnight at 20° C. at 220 rpm), carrying desired plasmid for RNAi of a specific gene or bacteria carrying empty vector pL4440 as control and allowed to grow on plates for 48 h. For drug assays, synchronized L4 larvae were transferred to either 60 mm NGM plates (with or without IPTG), freshly seeded with 5×E. coli OP50-1 or 20× HT1115 RNAi bacteria. Before seeding, the desired drug (or vehicle control) was mixed with the bacteria. Final drug concentrations were calculated considering the total volume of media and bacteria seeded on the NGM plates.
Briefly, each animal was touched alternately in the head region and in the tail with an eyelash. Typically, an omega turn or diversion in head direction resulting from anterior touch was counted as a positive response. Posterior touch response (not counted towards positive response) functioned towards resetting of the response to anterior touch. Touch index (TI) scores were generated by dividing the total number of positive responses over the […] per animal.
Synchronized glod-4 L1 animals were cultured on NGM agar plates seeded with E. coli OP50-1 until L4. […] Post-transfer into wells, animals were fed OP50-1 bacteria ad libitum while incubating at 20° C. on a rocker for 12 h. DMSO was used as control. Post-incubation with drug or DMSO, animals were transferred from wells onto NGM agar plates seeded with OP50-1 bacteria. Touch assay was performed on individual animal and touch index (TI) was calculated for each compound from the library as mentioned earlier.

C. elegans [2] = assay: Lifespan assay (survival curves); type: in vivo, Caenorhabditis elegans; settings: glod-4 mutant animals; PA, LA, or UMP (20 pM) vs EtOH control
Protocol: Life span assays were performed in Thermo Scientific Precision incubators at 20° C. After alkaline hypochlorite treatment, synchronized L1 animals were either placed onto NGM plates seeded with 5× concentrated E. coli OP50-1 (cultured on Lysogeny Broth/LB overnight) or on RNAi plates supplemented with 20×HT1115 RNAi bacteria. Post-L4 stage of development, all lifespan assays were performed using FUdR (5-fluoro-2 deoxyuridine) plates to inhibit development and growth of progeny. Every two days, animals were transferred on to new 60 mm NGM or RNAi plates freshly seeded with OP50-1 or HT1115 bacteria (with or without drug), respectively. 90-120 animals were considered for each lifespan experiment. Animal viability was assessed visually or with gentle prodding on the head. Animals were censored in the event of internal hatching of the larvae, body rupture, or crawling of larvae from the plates.

SKN-1/Nrf2 = assay: SKN-1 activation assay (GFP reporters for SKN-1, gst-4, gcs-1; qPCR); type: in vivo, Caenorhabditis elegans; settings: gst-4p::gfp animals on EV or glod-4 RNAi; PA, LA, or UMP (20 pM)
Protocol: Adult animals were examined for SKN-1/Nrf2 activation using GFP reporters for both SKN-1 and SKN-1 target genes: gst-4 and gcs-1. For exogenous MGO and drug assays, age-synchronized GFP reporter strains were subject to control and treatment conditions for a period of 4-6 hours before microscopy. For RNAi-induced activation studies, GFP reporter strains were fed on HT1115 bacteria expressing empty vector pL4440 or RNAi gene from L1 stage. Synchronized day 1 adult animals were then subjected to microscopic examination. Activation of SKN-1 using SKN-1 fusion reporter was determined as described earlier (An et al. (2003) Genes & Dev. 17: 1882-1893; Onken and Driscoll (2010) PloS One, 5: e8758). Scoring for downstream SKN-1 targets carrying GFP reporter for gcs-1 promoter was performed based on a previous study (Wang et al. (2010) PLoS Genetics, doi. org/10.1371/journal.pgen.1001048) and categorized as follows: ‘high’ for strong GFP signal throughout the intestine, ‘medium’ for GFP signal in the anterior or posterior section of the intestine and ‘low’ for weak or no signal. For animals with gst-4 promoters carrying GFP reporters number of GST-4 positive foci was counted under different conditions as described previously (Fensgardet al. (2010) Aging, 2: 133-159). Quantification of acquired images was done using the Image J™ software (//imagej.nih.gov/ij/).
Total RNA was extracted from nearly 100 age-synchronized adult animals picked and collected in 20 pl of M9 buffer using TRIzol reagent (Life Technologies, CA). Subsequently, 1 pg total RNA was used as template for cDNA synthesis. cDNA was synthesized using the ISCRIPT™ cDNA synthesis kit (Bio-Rad, CA) following manufacturer's protocol. qRT-PCR was carried out using the SensiFAST SYBR No-ROX kit (Bioline, MA) in a LightCycler 480 Real-Time PCR system (Roche Diagnostics Corp., IN). Quantification was performed using the comparative AACt method and normalization for internal reference was done using actin gene act-1.

glod-4 animals = assay: LC-MS/MS estimation of a-DC levels (MGO, GO) in worms; type: in vivo, Caenorhabditis elegans; settings: glod-4, PA
Protocol: Worms were cultured on NGM agar plates as explained before for lifespan experiments with some modifications: ˜100 animals/60 mm plates were used for each experimental replicate and animals were harvested at day 4 of adulthood with 20 pL M9 buffer in 1.5 mL eppendorf tubes. Worm suspensions were flash-frozen over liquid nitrogen and subsequently homogenized ultrasonically using a Fisher Scientific's 550 Sonic Dismembrator with 80 pL of sodium formate buffer (pH=3) containing 75 pM of 2,3-hexanedione (internal standard, IS). Two 20 s pulses at amplitude setting 4 of the instrument (on ice) were sufficient to completely homogenize worm bodies. To each homogenate tube 20 pL of 100 mg/mL o-phenelynediamine (OPD) solution in sodium formate buffer (pH=3) were added, and the mixture was allowed to react in dark at room temperature for ˜22 h. The long reaction time and the pH are critical parameters in this protocol: first to ensure complete derivatization of a-DCs bound reversibly to protein/glutathione —SHs; and second to prevent in vitro a-DC generation from glycolytic intermediates (DHAP, GAP, etc.) or due to DNA breakdown (Chaplen et al. (1998) Proc. Natl. Acad. Sci. USA, 95: 5533-5538). At the end of the stipulated reaction window, 12 pL of 5 M perchloric acid was added to each tube and incubated on ice for 30 min to ensure complete protein precipitation. Subsequently, the tubes were centrifuged at 10,000 rpm for 10 min, and the supernatant collected and neutralized with 30 pL 4 M NH4OH solution.
Optimization of analyte-specific MRM transitions, such as determination of suitable precursor and product ions and optimal MS parameters for each transition (Q1, precursor→Q3, product) were achieved by isocratic flow injection of the 10 pM solution (final) for each standard- or IS-OPD derivatives. The most intense (Q1→Q3) transition was used as quantifier, whereas the next best transition was used as qualifier for each compound (Table 4). For LC separation, a solvent gradient of 0.1% acetic acid in water (aqueous) - methanol (organic) was used with 0.4 mL/min flow rate, starting with an […] content of 3% for 0.7 min, which was increased to 100% over 6 min and held at 100% for 1.5 min. The LC column was subsequently reconstituted to its initial condition (methanol content of 3%) over the next 0.5 min and re-equilibrated for 3 min.
Derivatized metabolome extracts, as well as synthetic a-DCs were analyzed by scheduled LC-MRM in positive ion mode. To develop the scheduled LC-MRM method, MS/MS data was collected for all transitions across the length of each LC run for a mixture of synthetic GO-, MGO-, 3DG-, and 2,3-hexanedione (IS)-OPD derivatives (1 pL injection of 1 pM final concentration). Source conditions were as follows: curtain gas (CUR) 20, nebulizer gas (GS1) 60, auxiliary gas (GS2) 50, ionspray voltage (IS) 4500 V, and source temperature (TEM) 450° C. This step was undertaken to ascertain the LC retention times (RT) for the OPD derivatives. Several such sets were acquired to compute analyte-specific variability in RTs. Next, the MS was switched to operate in scheduled MRM mode, whereby the mass spectrometer acquired data for specific MRM transitions ±45 s around the computed RT for the analyte (Table 4). Relative quantification of GO, MGO, and 3DG were based on integration of corresponding OPD derivative-specific quantifier peaks obtained from scheduled LC-MRM runs (peak areas) and adjusted to the number of animals. To account for OPD derivatization efficiencies in individual tubes, sample-to-sample variability in MS response, and differential sample dilutions (both for synthetic a-DCs as well as a-DCs in worm homogenates), the peak areas were normalized to the quantifier peak area for IS-OPD for each sample.

TRPM8 (mouse) = target: T3, TRPM8 (mouse) (Mus musculus, UniProt Q8R4D5); assay: Calcium imaging of HEK293T cells (Rhod-3 AM), mouse TRPM8; type: cell-based; settings: HEK293T transfected with mouse TRPM8 and GFP; 100 pM MGO then 100 pM menthol
T3 construct: expressed in transfected cells; host or cells: HEK293T
Protocol: as §1

native HEK293T cells = assay: Calcium imaging of native HEK293T cells (GFP only); type: cell-based
Protocol: as §1

T3 sequence (Q8R4D5 whole entry): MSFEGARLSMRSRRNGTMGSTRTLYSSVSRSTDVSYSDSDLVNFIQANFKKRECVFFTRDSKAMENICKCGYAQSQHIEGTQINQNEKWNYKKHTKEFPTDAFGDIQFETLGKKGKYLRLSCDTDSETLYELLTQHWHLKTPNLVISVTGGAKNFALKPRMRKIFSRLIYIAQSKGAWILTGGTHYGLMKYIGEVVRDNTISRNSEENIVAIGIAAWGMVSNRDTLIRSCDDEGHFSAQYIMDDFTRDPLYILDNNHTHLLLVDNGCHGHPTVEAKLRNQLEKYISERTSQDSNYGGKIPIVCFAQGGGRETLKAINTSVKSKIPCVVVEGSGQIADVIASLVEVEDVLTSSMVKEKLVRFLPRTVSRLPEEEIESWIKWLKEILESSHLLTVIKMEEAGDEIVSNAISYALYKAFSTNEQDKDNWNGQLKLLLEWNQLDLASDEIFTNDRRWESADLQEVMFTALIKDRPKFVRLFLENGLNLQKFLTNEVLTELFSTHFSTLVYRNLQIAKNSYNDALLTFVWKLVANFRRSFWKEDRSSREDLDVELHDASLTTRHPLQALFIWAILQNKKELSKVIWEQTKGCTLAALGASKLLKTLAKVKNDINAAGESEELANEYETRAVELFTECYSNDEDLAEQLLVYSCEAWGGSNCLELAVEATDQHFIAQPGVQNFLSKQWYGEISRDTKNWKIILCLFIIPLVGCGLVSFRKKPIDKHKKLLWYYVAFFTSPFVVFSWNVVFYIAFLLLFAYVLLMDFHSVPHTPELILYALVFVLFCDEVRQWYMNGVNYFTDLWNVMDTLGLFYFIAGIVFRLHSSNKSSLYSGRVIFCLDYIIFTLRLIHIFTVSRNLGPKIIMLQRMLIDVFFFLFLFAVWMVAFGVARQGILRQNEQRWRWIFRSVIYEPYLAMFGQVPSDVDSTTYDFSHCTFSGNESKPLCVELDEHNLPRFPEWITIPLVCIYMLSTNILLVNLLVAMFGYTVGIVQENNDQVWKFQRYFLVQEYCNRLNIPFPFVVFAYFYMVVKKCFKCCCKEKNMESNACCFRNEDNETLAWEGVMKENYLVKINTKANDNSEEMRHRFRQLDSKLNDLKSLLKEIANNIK
T2 sequence (Q6RI86 whole entry): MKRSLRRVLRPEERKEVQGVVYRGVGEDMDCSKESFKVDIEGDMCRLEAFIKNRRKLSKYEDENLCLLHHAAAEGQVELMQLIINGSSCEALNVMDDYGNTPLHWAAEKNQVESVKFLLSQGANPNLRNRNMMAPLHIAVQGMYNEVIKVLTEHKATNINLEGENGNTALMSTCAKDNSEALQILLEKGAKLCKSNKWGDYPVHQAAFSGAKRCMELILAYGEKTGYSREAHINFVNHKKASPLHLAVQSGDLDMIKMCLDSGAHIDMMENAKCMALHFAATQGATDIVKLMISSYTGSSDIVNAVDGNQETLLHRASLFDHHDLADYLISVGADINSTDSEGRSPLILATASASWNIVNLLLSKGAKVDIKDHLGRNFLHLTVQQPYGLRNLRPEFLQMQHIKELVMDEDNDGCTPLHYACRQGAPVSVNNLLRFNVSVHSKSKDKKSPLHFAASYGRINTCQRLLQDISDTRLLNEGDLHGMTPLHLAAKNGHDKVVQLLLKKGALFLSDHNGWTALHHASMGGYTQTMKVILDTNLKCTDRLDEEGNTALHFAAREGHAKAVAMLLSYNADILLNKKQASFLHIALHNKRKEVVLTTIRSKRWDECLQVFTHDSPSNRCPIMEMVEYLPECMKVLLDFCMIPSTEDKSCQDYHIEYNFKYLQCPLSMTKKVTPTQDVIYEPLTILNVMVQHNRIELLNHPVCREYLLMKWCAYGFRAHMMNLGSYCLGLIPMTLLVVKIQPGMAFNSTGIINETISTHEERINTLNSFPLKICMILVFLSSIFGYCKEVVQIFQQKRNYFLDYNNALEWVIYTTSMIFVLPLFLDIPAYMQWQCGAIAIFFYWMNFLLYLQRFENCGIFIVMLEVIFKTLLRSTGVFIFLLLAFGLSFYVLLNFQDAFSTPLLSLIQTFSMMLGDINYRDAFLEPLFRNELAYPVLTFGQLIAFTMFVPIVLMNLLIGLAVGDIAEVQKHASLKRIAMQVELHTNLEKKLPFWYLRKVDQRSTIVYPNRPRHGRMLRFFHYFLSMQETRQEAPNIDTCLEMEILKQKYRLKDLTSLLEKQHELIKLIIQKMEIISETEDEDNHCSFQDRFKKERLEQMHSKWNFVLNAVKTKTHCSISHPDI

## C=CCN=C=S [AITC, allyl isothiocyanate]
TRPA1 (worm)
  Activation of worm TRPA1 channel (Ca2+ flux, Rhod-3 AM): failed to activate
TRPA1 (RAT)
  Activation of mammalian TRPA1: known to activate

## O=c1ccn([C@@H]2O[C@H](COP(=O)(O)O)[C@@H](O)[C@H]2O)c(=O)[nH]1 [UMP, Uridine monophosphate]
C. elegans [1]
  Touch sensitivity (touch index) in drug screen of TimTec NPL640: reduced touch sensitivity
C. elegans [2]
  Lifespan / early mortality (survival curves): does not ameliorate
SKN-1/Nrf2
  SKN-1 activation (GFP foci in gst-4p::gfp): nor does it activate SKN-1
glod-4 animals; LA, or UMP (20 pM each) vs EtOH control
  Levels of GO: does not ameliorate
glod-4 animals; LA, or UMP (20 pM) vs EtOH control
  Levels of MGO: does not ameliorate

## CC1CCC(C(C)C)C(O)C1 (stereo not drawn) [menthol]
TRPM8 (mouse)
  Ca2+ flux through the TRPM8 channel (Rhod-3 AM): triggers a Ca^+2 flux
Native HEK293T cells
  Ca2+ flux in native HEK293T cells (Rhod-3 AM): neither compounds resulted in Ca^+2 flux
